The nature of data set [1]: logP by HPLC on reversed-phase column (C 18), EEC Directive 79/831 Annex V.A8. In kind it is physicochemical.
For data set [2], the system named is weeds. In words: Pre-emergence test (Example A), damage to weeds. Type of data set: in vivo. The conditions noted are these: soil sprayed 24 hours after sowing, rated after three weeks. On the procedure:
(§1) To produce a suitable preparation of active compound, 1 part by weight of active compound is mixed with the stated amount of solvent, the stated amount of emulsifier is added and the concentrate is diluted with water to the desired concentration.
Seeds of the test plants are sown in normal soil. After 24 hours, the soil is sprayed with the preparation of active compound such that the particular amount of active compound desired is applied per unit area. The concentration of active compound in the spray liquor is chosen such that the particular amount of active compound desired is applied in 1000 liters of water per hectare.
After three weeks, the degree of damage to the plants is rated in % damage in comparison to the development of the untreated control. The figures denote: • 0%=no effect (like untreated control) • 100%=total destruction

Data set [3] deals with weeds. The data set can be described thus: Post-emergence test (Example B), damage to weeds. In kind it is in vivo. As to conditions: test plants of 5-15 cm sprayed, rated after three weeks. On the procedure: as §1
Test plants of a height of 5-15 cm are sprayed with the preparation of active compound such that the particular amounts of active compound desired are applied per unit area. The concentration of the spray liquor is chosen such that the particular amounts of active compound desired are applied in 1000 l of water/ha.
After three weeks, the degree of damage to the plants is rated in % damage in comparison to the development of the untreated control.
The figures denote: • 0%=no effect (like untreated control) • 100%=total destruction

These results are taken from patent US7521396B2, “Substituted (thioxo)carbonylaminophenyluracils” (Bayer CropScience AG, priority 2002, dated 2009).

Read-outs that look alike come from different tables or passages of the source. Marks after values point to notes of the source that are not given here.

As to `Cn1c(C(F)(F)F)cc(=O)n(-c2cc(NC(=O)NCCC#N)c(Br)cc2F)c1=O` [Example 20], the logP result in data set [1] (a) acidic range: 0.1% aqueous phosphoric acid, acetonitrile gradient, 43° C.) is on record as “logP = 2.08^a)”. Besides, in the data set on weeds [2], the “activity against weeds (degree of damage)” value (“activity against weeds” for short) is “strong activity”.

Turning to `CCOC(=O)C(C)OC(=O)Nc1cc(-n2c(=O)cc(C(F)(F)F)n(C)c2=O)c(F)cc1Br` (stereo not drawn) [Example 10], the logP entry in data set [1] is “logP = 3.06^a)”. Further, the “activity against weeds” value in the data set on weeds [2] and with weeds [3] was “strong activity” each time.

With `CN(Cc1ccco1)C(=O)Nc1cc(-n2c(=O)cc(C(F)(F)F)n(C)c2=O)c(F)cc1Cl` [Example 44], in data set [1], the logP entry is on record as “logP = 2.88^a)”. In addition, the “activity against weeds” value in the data set with weeds [2] and with weeds [3] was “strong activity” throughout.

With `Cn1c(C(F)(F)F)cc(=O)n(-c2cc(NC(=O)NC3=NCCS3)c(Cl)cc2F)c1=O` [Example 48], the logP result in data set [1] is given as “logP = 2.11^a)”. For the same compound, the “activity against weeds” value with weeds [2] and in the data set on weeds [3] was “strong activity” each time.

As to `C=CCONC(=O)Nc1cc(-n2c(=O)cc(C(F)(F)F)n(C)c2=O)c(F)cc1Br` [Example 26], the logP result in data set [1] is given as “logP = 2.67^a)”. Besides, the “activity against weeds” value with weeds [2] and in the data set with weeds [3] was “strong activity” each time.

For `CON(C)C(=O)Nc1cc(-n2c(=O)cc(C(F)(F)F)n(C)c2=O)c(F)cc1Cl` [Example 21], the logP entry in data set [1] is on record as “logP = 2.60^a)”. For the same compound, the “activity against weeds” value with weeds [2] and in the data set on weeds [3] was “strong activity” throughout.

Consider `COC(=O)[C@@H]1CCCN1C(=O)Nc1cc(-n2c(=O)cc(C(F)(F)F)n(C)c2=O)c(F)cc1Br` [Example 33], for which, in data set [1], the logP entry is “logP = 2.52^a)”. The “activity against weeds” value in the data set on weeds [3] was “strong activity”.

Turning to `CONC(=O)Nc1cc(-n2c(=O)cc(C(F)(F)F)n(C)c2=O)c(F)cc1Br` [Example 9], the logP entry in data set [1] was “logP = 2.19^a)”. For the same compound, the “activity against weeds” value with weeds [2] and in the data set with weeds [3] was “strong activity” each time.

As to `CCN1CCN(C(=O)Nc2cc(-n3c(=O)cc(C(F)(F)F)n(C)c3=O)c(F)cc2Br)C1=O` [Example 6], the logP result in data set [1] is “logP = 2.85^a)”. The “activity against weeds” value in the data set on weeds [2] and in the data set on weeds [3] was “strong activity” throughout.

With `Cn1c(C(F)(F)F)cc(=O)n(-c2cc(NC(=O)N3CCOC3=O)c(Br)cc2F)c1=O` [Example 30], in data set [1], the logP result is given as “logP = 2.59^a)”. Also, the “activity against weeds” value in the data set with weeds [2] and in the data set on weeds [3] was “strong activity” each time.

For `CCCN(C(=O)Nc1cc(-n2c(=O)cc(C(F)(F)F)n(C)c2=O)c(F)cc1Cl)C(C)C` [Example 45], the logP entry in data set [1] is “logP = 2.58^a)”. Also, the “activity against weeds” value in the data set with weeds [2] and with weeds [3] was “strong activity” throughout.

On to `Cn1c(C(F)(F)F)cc(=O)n(-c2cc(NC(=O)N3CCCO3)c(Cl)cc2F)c1=O` [Example 24], for which the logP entry in data set [1] is recorded as “logP = 2.58^a)”. Further, the “activity against weeds” value in the data set with weeds [2] and in the data set on weeds [3] was “strong activity” in each case.

Consider `Cn1c(C(F)(F)F)cc(=O)n(-c2cc(NC(=O)N3CCCO3)c(Br)cc2F)c1=O` [Example 28], for which the logP result in data set [1] is on record as “logP = 2.63^a)”. Further, the “activity against weeds” value in the data set with weeds [2] and in the data set on weeds [3] was “strong activity” throughout.

With `CN(Cc1ccco1)C(=O)Nc1cc(-n2c(=O)cc(C(F)(F)F)n(C)c2=O)c(F)cc1Br` [Example 37], in data set [1], the logP entry is “logP = 2.95^a)”. Further, the “activity against weeds” value in the data set on weeds [2] and in the data set on weeds [3] was “strong activity” each time.

For the compound `CCCN(C(=O)Nc1cc(-n2c(=O)cc(C(F)(F)F)n(C)c2=O)c(F)cc1Br)C(C)C` [Example 38], the logP result in data set [1] is reported as “logP = 2.79^a)”. Besides, the “activity against weeds” value in the data set with weeds [2] and with weeds [3] was “strong activity” in each case.

Take `Cn1c(C(F)(F)F)cc(=O)n(-c2cc(NC(=O)NC3=NCCS3)c(Br)cc2F)c1=O` [Example 39]: in data set [1], the logP result is “logP = 2.16^a)”. The “activity against weeds” value in the data set with weeds [2] and in the data set on weeds [3] was “strong activity” each time.

Consider `Cn1c(C(F)(F)F)cc(=O)n(-c2cc(NC(=O)N3CCOCC3)c(Cl)cc2F)c1=O` [Example 49], for which the logP entry in data set [1] is reported as “logP = 2.11^a)”. Moreover, the “activity against weeds” value in the data set on weeds [2] was “strong activity”.

`CON(C)C(=O)Nc1cc(-n2c(=O)cc(C(F)(F)F)n(C)c2=O)c(F)cc1Br` [Example 8]: in data set [1], the logP entry is “logP = 2.67^a)”. Besides, the “activity against weeds” value with weeds [2] and in the data set with weeds [3] was “strong activity” throughout.

In the case of `Cn1c(C(F)(F)F)cc(=O)n(-c2cc(NC(=O)N3CCOC3=O)c(Cl)cc2F)c1=O` [Example 25], in data set [1], the logP entry is recorded as “logP = 2.55^a)”. Besides, the “activity against weeds” value in the data set on weeds [2] and in the data set with weeds [3] was “strong activity” in each case.

In the case of `CN1CCCN(C(=O)Nc2cc(-n3c(=O)cc(C(F)(F)F)n(C)c3=O)c(F)cc2Br)C1=O` [Example 7], the logP entry in data set [1] was “logP = 2.79^a)”. For the same compound, the “activity against weeds” value in the data set on weeds [2] and with weeds [3] was “strong activity” each time.

Turning to `C=CCONC(=O)Nc1cc(-n2c(=O)cc(C(F)(F)F)n(C)c2=O)c(F)cc1Cl` [Example 22], the logP entry in data set [1] is “logP = 2.60^a)”. In addition, the “activity against weeds” value with weeds [2] was “strong activity”.

In the case of `CN1CCN(C(=O)Nc2cc(-n3c(=O)cc(C(F)(F)F)n(C)c3=O)c(F)cc2Br)C1=O` [Example 5], in data set [1], the logP entry is recorded as “logP = 2.55^a)”. The “activity against weeds” value in the data set with weeds [2] and in the data set on weeds [3] was “strong activity” throughout.

Consider `Cn1ccsc1=NC(=O)Nc1cc(-n2c(=O)cc(C(F)(F)F)n(C)c2=O)c(F)cc1Cl` [Example 32], for which, in data set [1], the logP entry is on record as “logP = 2.51^a)”. In addition, the “activity against weeds” value with weeds [2] and in the data set on weeds [3] was “strong activity” each time.

Turning to `Cn1ccsc1=NC(=O)Nc1cc(-n2c(=O)cc(C(F)(F)F)n(C)c2=O)c(F)cc1Br` [Example 31], in data set [1], the logP entry is on record as “logP = 2.59^a)”. Also, the “activity against weeds” value in the data set with weeds [2] and in the data set on weeds [3] was “strong activity” throughout.

As to `Cn1c(C(F)(F)F)cc(=O)n(-c2cc(NC(=O)N3CCOCC3)c(Br)cc2F)c1=O` [Example 41], the logP result in data set [1] was “logP = 2.16^a)”. Moreover, the “activity against weeds” value with weeds [3] was “strong activity”.

For the compound `CCOC(=O)C1CCN(C(=O)Nc2cc(-n3c(=O)cc(C(F)(F)F)n(C)c3=O)c(F)cc2Br)CC1` [Example 36], in data set [1], the logP entry was “logP = 2.88^a)”. Further, the “activity against weeds” value in the data set with weeds [3] is “strong activity”.

With `CCONC(=O)Nc1cc(-n2c(=O)cc(C(F)(F)F)n(C)c2=O)c(F)cc1Cl` [Example 27], the logP entry in data set [1] is recorded as “logP = 2.45^a)”. For the same compound, the “activity against weeds” value in the data set on weeds [2] and in the data set with weeds [3] was “strong activity” each time.
